Source: patent publication US11753407B2, “Compounds for treating spinal muscular atrophy” (PTC Therapeutics, Inc., priority 2012, dated 2023)

Assays:
[1] = tested on: Smn protein in SMA patient fibroblast cells (GM03813); test: Smn protein assay in cultured cells (SMN HTRF); assay type: cell-based, human; conditions: SMA patient fibroblast cells, 48 hours; for EC1.5x for Smn protein expression: 7-point concentration curve, SMN HTRF, concentration producing 1.5 times Smn protein vs DMSO vehicle control; for maximum fold (Fold) increase of Smn protein: 7-point concentration data, fold relative to vehicle control
Summary of the method: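 SMA patient fibroblasts (5,000/well, DMEM-10% FBS) treated 48 h at 37° C with 7-point, 3.16-fold compound series in triplicate; lysates read by SMN HTRF (665/620 nm ratio). Fold Smn increase over DMSO vehicle derived; EC1.5× is concentration giving 1.5-fold Smn, with maximum fold also reported.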

[2] = tested on: SMN2 minigene mRNA (SMN2-A minigene) in HEK293H cells; test: SMN2 minigene mRNA splicing RT-qPCR assay in cultured cells; assay type: cell-based, human; conditions: Homo sapiens, HEK293-H; concentration increasing full length SMN2 mRNA 1.5-fold relative to vehicle-treated cells; HEK293H cells with SMN2-A minigene, 24 hours, 7-point concentration data; read-out: EC1.5x for production of full length SMN2 mRNA
Summary of the method: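 HEK293H cells stably carrying SMN2-A minigene treated with compounds (7-point, 3.16-fold dilutions, duplicates) for 24 h at 37 °C. Full-length exon 7-containing minigene mRNA measured by multiplex RT-qPCR with GAPDH, normalized and expressed relative to vehicle (modified ΔΔCt); EC1.5× is concentration giving 1.5-fold increase.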

SMILES	melting point [°C]	EC1.5x for Smn protein expression [1]	maximum fold (Fold) increase of Smn protein [1]	EC (1.5-fold increase) [2] [µM]
Cc1cn2nc(-c3cc(=O)n4cc(C5CCNCC5)cc(C)c4n3)cc2c(C)n1 [Compound 671, 2-(4,6-dimethylpyrazolo[1,5-a]pyrazin-2-yl)-9-methyl-7-(piperidin-4-yl)-4H-pyrido[1,2-a]pyrimidin-4-one]	247 to 255	**** (an EC1.5x≤0.3 μM is indicated by four stars (****))	***** (a fold increase >1.65 is indicated by five stars (*****))	< 0.1
Cc1cn2nc(-c3cc(=O)n4cc(N5CCN(CCO)[C@H](C)C5)cc(C)c4n3)cc2c(C)n1 [Compound 673, 2-(4,6-dimethylpyrazolo[1,5-a]pyrazin-2-yl)-7-[(3R)-4-(2-hydroxyethyl)-3-methylpiperazin-1-yl]-9-methyl-4H-pyrido[1,2-a]pyrimidin-4-one]	273 to 281	**** (an EC1.5x≤0.3 μM is indicated by four stars (****))	**** (a fold increase between >1.5 and ≤1.65 is indicated by four stars (****))	< 0.1
CCc1nc(C)cn2nc(-c3cc(=O)n4cc(C5CCN(C(C)C)CC5)ccc4n3)cc12 [Compound 679, 2-(4-ethyl-6-methylpyrazolo[1,5-a]pyrazin-2-yl)-7-[1-(propan-2-yl)piperidin-4-yl]-4H-pyrido[1,2-a]pyrimidin-4-one]	228 to 230	**** (an EC1.5x≤0.3 μM is indicated by four stars (****))	***** (a fold increase >1.65 is indicated by five stars (*****))	< 0.1
CCc1nc(C)cn2nc(-c3cc(=O)n4cc(C5CCN(C6CC6)CC5)ccc4n3)cc12 [Compound 680, 7-(1-cyclopropylpiperidin-4-yl)-2-(4-ethyl-6-methylpyrazolo[1,5-a]pyrazin-2-yl)-4H-pyrido[1,2-a]pyrimidin-4-one]	196 to 199	**** (an EC1.5x≤0.3 μM is indicated by four stars (****))	***** (a fold increase >1.65 is indicated by five stars (*****))	< 0.1
CCc1nc(C)cn2nc(-c3cc(=O)n4cc(C5CCN(C6CCC6)CC5)ccc4n3)cc12 [Compound 681, 7-(1-cyclobutylpiperidin-4-yl)-2-(4-ethyl-6-methylpyrazolo[1,5-a]pyrazin-2-yl)-4H-pyrido[1,2-a]pyrimidin-4-one]	227 to 229	**** (an EC1.5x≤0.3 μM is indicated by four stars (****))	***** (a fold increase >1.65 is indicated by five stars (*****))	< 0.1
CCc1nc(C)cn2nc(-c3cc(=O)n4cc(C5CCN(C6COC6)CC5)ccc4n3)cc12 [Compound 682, 2-(4-ethyl-6-methylpyrazolo[1,5-a]pyrazin-2-yl)-7-[1-(oxetan-3-yl)piperidin-4-yl]-4H-pyrido[1,2-a]pyrimidin-4-one]	190 to 192	** (an EC1.5× between >1 μM and ≤3 μM is indicated by two stars (**))	***** (a fold increase >1.65 is indicated by five stars (*****))	0.3 to 1
Cc1cn2nc(-c3cc(=O)n4cc(N5CCNCC5)ccc4n3)cc2c(C2CC2)n1 [Compound 683, 2-(4-cyclopropyl-6-methylpyrazolo[1,5-a]pyrazin-2-yl)-7-(piperazin-1-yl)-4H-pyrido[1,2-a]pyrimidin-4-one]	226 to 229	*** (an EC1.5× between >0.3 μM and ≤1 μM is indicated by three stars (***))	***** (a fold increase >1.65 is indicated by five stars (*****))	< 0.1
CCCN1CCC(c2ccc3nc(-c4cc5c(C)nc(C)cn5n4)cc(=O)n3c2)CC1 [Compound 687, 2-(4,6-dimethylpyrazolo[1,5-a]pyrazin-2-yl)-7-(1-propylpiperidin-4-yl)-4H-pyrido[1,2-a]pyrimidin-4-one]	185 to 187	**** (an EC1.5x≤0.3 μM is indicated by four stars (****))	**** (a fold increase between >1.5 and ≤1.65 is indicated by four stars (****))	< 0.1
Cc1cn2cc(-c3cc(=O)n4nc(C5CCNCC5)ccc4n3)cc(C)c2n1 [Compound 691, 2-(2,8-dimethylimidazo[1,2-a]pyridin-6-yl)-7-(piperidin-4-yl)-4H-pyrimido[1,2-b]pyridazin-4-one]	215 to 217	**** (an EC1.5x≤0.3 μM is indicated by four stars (****))	***** (a fold increase >1.65 is indicated by five stars (*****))	< 0.1
Cc1cn2cc(-c3cc(=O)n4nc(C5CCNCC5)ccc4n3)ccc2n1 [Compound 692, 2-(2-methylimidazo[1,2-a]pyridin-6-yl)-7-(piperidin-4-yl)-4H-pyrimido[1,2-b]pyridazin-4-one]	249 to 251	*** (an EC1.5× between >0.3 μM and ≤1 μM is indicated by three stars (***))	***** (a fold increase >1.65 is indicated by five stars (*****))	0.1 to 0.3

Second part, led by results:

melting point [°C]	SMILES	EC1.5x for Smn protein expression [1]	maximum fold (Fold) increase of Smn protein [1]	EC (1.5-fold increase) [2] [µM]
262 to 266	Cc1cn2cc(-c3cc(=O)n4cc(N5CCN(C)CC5)ccc4n3)cc(CO)c2n1 [Compound 677, 2-[8-(hydroxymethyl)-2-methylimidazo[1,2-a]pyridin-6-yl]-7-(4-methylpiperazin-1-yl)-4H-pyrido[1,2-a]pyrimidin-4-one]	*** (an EC1.5× between >0.3 μM and ≤1 μM is indicated by three stars (***))	***** (a fold increase >1.65 is indicated by five stars (*****))	< 0.1
258 to 262	CCN1CCN(c2ccc3nc(-c4cc(CO)c5nc(C)cn5c4)cc(=O)n3c2)CC1 [Compound 678, 7-(4-ethylpiperazin-1-yl)-2-[8-(hydroxymethyl)-2-methylimidazo[1,2-a]pyridin-6-yl]-4H-pyrido[1,2-a]pyrimidin-4-one]	**** (an EC1.5x≤0.3 μM is indicated by four stars (****))	***** (a fold increase >1.65 is indicated by five stars (*****))	< 0.1
238 to 240	Cc1cn2nc(-c3cc(=O)n4cc(N5CCN(C)CC5)ccc4n3)cc2c(C2CC2)n1 [Compound 684, 2-(4-cyclopropyl-6-methylpyrazolo[1,5-a]pyrazin-2-yl)-7-(4-methylpiperazin-1-yl)-4H-pyrido[1,2-a]pyrimidin-4-one]	*** (an EC1.5× between >0.3 μM and ≤1 μM is indicated by three stars (***))	***** (a fold increase >1.65 is indicated by five stars (*****))	0.1 to 0.3
236 to 238	CCN1CCN(c2ccc3nc(-c4cc5c(C6CC6)nc(C)cn5n4)cc(=O)n3c2)CC1 [Compound 685, 2-(4-cyclopropyl-6-methylpyrazolo[1,5-a]pyrazin-2-yl)-7-(4-ethylpiperazin-1-yl)-4H-pyrido[1,2-a]pyrimidin-4-one]	** (an EC1.5× between >1 μM and ≤3 μM is indicated by two stars (**))	**** (a fold increase between >1.5 and ≤1.65 is indicated by four stars (****))	0.1 to 0.3
239 to 241	Cc1cn2nc(-c3cc(=O)n4cc(N5CCN(CCO)CC5)ccc4n3)cc2c(C2CC2)n1 [Compound 686, 2-(4-cyclopropyl-6-methylpyrazolo[1,5-a]pyrazin-2-yl)-7-[4-(2-hydroxyethyl)piperazin-1-yl]-4H-pyrido[1,2-a]pyrimidin-4-one]	** (an EC1.5× between >1 μM and ≤3 μM is indicated by two stars (**))	***** (a fold increase >1.65 is indicated by five stars (*****))	0.3 to 1
292 to 294	Cc1nc2ccc(-c3cc(=O)n4cc(N5CCN(C)CC5)ccc4n3)cc2[nH]1 [Compound 689, 2-(2-methyl-1H-benzimidazol-6-yl)-7-(4-methylpiperazin-1-yl)-4H-pyrido[1,2-a]pyrimidin-4-one]	*** (an EC1.5× between >0.3 μM and ≤1 μM is indicated by three stars (***))	**** (a fold increase between >1.5 and ≤1.65 is indicated by four stars (****))	0.1 to 0.3
283 to 285	CCN1CCN(c2ccc3nc(-c4ccc5nc(C)[nH]c5c4)cc(=O)n3c2)CC1 [Compound 690, 7-(4-ethylpiperazin-1-yl)-2-(2-methyl-1H-benzimidazol-6-yl)-4H-pyrido[1,2-a]pyrimidin-4-one]	*** (an EC1.5× between >0.3 μM and ≤1 μM is indicated by three stars (***))	**** (a fold increase between >1.5 and ≤1.65 is indicated by four stars (****))	< 0.1
